Test results from PubChem BioAssay (NCI).
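Step 1: Grow cells in 96-well plates. Step 2: Expose to compound for 48 hours at 5 concentrations. Step 3: Interpolate endpoints linearly; if unreached, use highest concentration. TGI is the concentration that stops growth completely.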

Key:
Assay in all cases: growth of human tumour cells (NCI), 48 h
[1] = system: PC-3 prostate
[2] = system: NCI/ADR-RES ovarian
[3] = system: SNB-75 CNS
[4] = system: MCF7 breast
[5] = system: LOX IMVI melanoma
[6] = system: NCI-H23 lung
[7] = system: M14 melanoma
[8] = system: OVCAR-3 ovarian
[9] = system: TK-10 renal
[10] = system: DU-145 prostate
[11] = system: MDA-N

| SMILES | TGI [1] [µM] | TGI [2] [µM] | TGI [3] [µM] | TGI [4] [µM] | TGI [5] [µM] | TGI [6] [µM] | TGI [7] [µM] | TGI [8] [µM] | TGI [9] [µM] | TGI [10] [µM] | TGI [11] [µM] |
| --- | --- | --- | --- | --- | --- | --- | --- | --- | --- | --- | --- |
| COc1ccc(/C=C2\CCC(CNc3ccc(OC)cc3)C2=O)cc1 (centres undefined) | 37 | > 100 | 94.5 | 13.3 | 28 | 19 | 34.9 | 31.6 | 36 | > 65.4 | 30.8 |
| COC(=O)C1CCC(=O)N1C(c1ccc(OC)cc1)c1ccc(OC)cc1 (centres undefined) | > 100 | > 100 | > 100 | > 100 | > 100 | > 100 | > 100 | > 100 | > 100 | > 100 | > 100 |
| CC(C)C1=CCC2C(=C1)CCC1C(C)(C(=O)O)CCCC21C (centres undefined) (tested in a mixture with another compound) | > 100 | > 100 | > 100 | > 100 | > 100 | > 100 | > 100 | > 100 | > 100 | > 100 | > 100 |
| NC1CC2NC3CCCCC3NC2CC1N (centres undefined) | > 100 | > 100 | > 100 | > 100 | > 100 | > 100 | > 100 | > 100 | > 100 | > 100 | > 100 |
| CCOC(=O)c1c(N2CCCC2)[nH]c(=O)c(C(c2ccco2)c2c(O)c(C(=O)OCC)c(N3CCCC3)[nH]c2=O)c1O | > 100 | > 100 | 60.5 | > 100 | > 100 | > 100 | > 100 | > 100 | > 100 | > 100 | > 100 |
| CC(=O)N(O)[C@@H]1CC[C@H](n2cnc3c(N)ncnc32)C1 | > 100 | > 100 | > 100 | > 100 | > 100 | > 100 | > 100 | > 100 | > 100 | > 100 | > 100 |
| Brc1ccc2c([C@H]3CN[C@@H](c4c[nH]c5cc(Br)ccc45)CN3)c[nH]c2c1 | 15.2 | 17.1 | 17.8 | 4 | 3.36 | 8.95 | 5.91 | 3.94 | 18.5 | 9.98 | 3.04 |
| CCOC(=O)C(Cl)(NC(=O)c1c(F)c(F)c(F)c(F)c1F)C(F)(F)F (centres undefined) | > 100 | > 100 | > 100 | > 100 | > 100 | > 100 | > 100 | > 100 | > 100 | > 100 | > 100 |
| CC1OC(O[C@H]2C3C=CO[C@@H](OC4OC(CO)C(O)C(O)C4O)C3[C@@]3(COC(=O)/C=C/c4ccc(O)cc4)O[C@@H]23)C(O)C(O)C1O (some centres undefined) | > 100 | > 100 | > 100 | > 100 | > 100 | > 100 | > 100 | > 100 | > 100 | > 100 | > 100 |
| CC(C)[Si](OC1=CCC[C@H]2NC(=O)[C@@H](Cc3ccccc3)[C@@]12C)(C(C)C)C(C)C | 12.3 | 21.7 | 31.2 | 13.4 | 11.2 | 18.9 | 24.7 | 19.7 | 21.7 | 22.1 | 14.2 |
| C#CC1(O)C(COP(=O)(O)OCC2OC(n3ccc(NCCCCCCCCCCCCCCCCCC)nc3=O)C(O)C2O)OC(n2ccc(N)nc2=O)C1O (centres undefined) | 31.7 | 37.3 | 45.9 | > 59.7 | 11.1 | 55.8 | 15.2 | 62.1 | 19.1 | > 100 | 70.6 |
| O=C1CCCC/C1=C\c1ccc(Br)cc1 | > 100 | 12.2 | 29.8 | 7.4 | > 100 | 33.2 | 26.1 | 44.3 | 30.9 | > 100 | 38.3 |
| Cc1cc(C)nc(SC(C)C(=O)N/N=C/c2ccc(OCc3ccccc3)cc2)n1 (centres undefined) | 58.7 | > 100 | > 100 | 90.5 | > 100 | > 100 | > 100 | > 100 | > 100 | > 100 | > 100 |
| CCCCN1C(=O)c2c(-c3sccc3N)sc(-c3sccc3N)c2C1=O | > 100 | > 83.2 | 34.6 | > 100 | > 100 | > 100 | > 100 | 78.5 | 72.5 | > 100 | > 34.6 |
| Nc1nc(Cl)cc(NCCC2(CO)CCC2)n1 | > 100 | > 100 | > 100 | > 100 | > 100 | > 100 | > 100 | > 100 | > 100 | > 100 | > 100 |
| NCCCNC1(c2cc3ccccc3s2)CCCCC1 | 21 | 30.4 | 24.2 | 12.2 | 6.86 | 31.3 | 3.51 | 22.6 | 12 | 24.8 | 3.56 |
| CC1C2CC(C(S(=O)(=O)N3CCOCC3)/C2=N\O)C1(C)C (centres undefined) | > 100 | > 100 | > 100 | > 100 | > 100 | > 100 | > 100 | > 100 | > 100 | > 100 | > 100 |
| Cc1noc2nnn(-c3ccc(Cl)cc3)c(=O)c12 | 19.2 | 29.8 | 7.47 | 13.6 | 11.4 | 20.5 | 25.4 | 6.83 | 21.8 | 14.3 | 17.9 |
| CCOC(=O)Cc1nc2sc(S(N)(=O)=O)nn2c1Br | 63.9 | > 100 | > 100 | > 100 | 44.3 | 81.5 | 33.8 | 98.5 | > 100 | > 100 | > 100 |
